Structures can show the parent of a compound that is named as a salt.
Legend:
[1] = biological target: T1, human adenosine A2a receptor (Homo sapiens, UniProt P29274); assay: Adenosine A2a Receptor Functional Assay (A2AGAL2); assay type: cell-based; conditions: CHO-K1 cells, cAMP inducible beta-galactosidase reporter, 15 nM NECA agonist challenge
T1 construct: expressed in transfected cells; host or cells: CHO-K1
Protocol: Adenosine A2a Receptor Functional Assay (A2AGAL2)
To initiate the functional assay, cryopreserved CHO-K1 cells overexpressing the human adenosine A2a receptor and containing a cAMP inducible beta-galactosidase reporter gene were thawed, centrifuged, DMSO containing media removed, and then seeded with fresh culture media into clear 384-well tissue culture treated plates (BD #353961) at a concentration of 10K cells/well. Prior to assay, these plates were cultured for two days at 37° C., 5% CO2, 90% Rh. On the day of the functional assay, culture media was removed and replaced with 45 uL assay medium (Hams/F-12 Modified (Mediatech #10-080CV) supplemented w/0.1% BSA). Test compounds were diluted and 11 point curves created at a 1000× concentration in 100% DMSO. Immediately after addition of assay media to the cell plates, 50 nL of the appropriate test compound antagonist or agonist control curves were added to cell plates using a Cartesian Hummingbird. Compound curves were allowed to incubate at room temperature on cell plates for approximately 15 minutes before addition of a 15 nM NECA (Sigma E2387) agonist challenge (5 uL volume). A control curve of NECA, a DMSO/Media control, and a single dose of Forskolin (Sigma F3917) were also included on each plate. After additions, cell plates were allowed to incubate at 37° C., 5% CO2, 90% Rh for 5.5-6 hours. After incubation, media was removed, and cell plates were washed 1×50 uL with DPBS w/o Ca & Mg (Mediatech 21-031-CV). Into dry wells, 20 uL of 1× Reporter Lysis Buffer (Promega E3971 (diluted in dH2O from 5× stock)) was added to each well and plates frozen at −20° C. overnight. For β-galactosidase enzyme colorimetric assay, plates were thawed out at room temperature and 20μL 2× assay buffer (Promega) was added to each well. Color was allowed to develop at 37° C., 5% CO2, 90% Rh for 1-1.5 h or until reasonable signal appeared. The calorimetric reaction was stopped with the addition of 60 μL/well 1M sodium carbonate. Plates were counted at 405 nm on a SpectraMax Microplate Reader (Molecular Devices). Data was analyzed in Microsoft Excel and IC/EC50 curves were fit using a standardized macro.

[2] = biological target: T2, human adenosine A1 receptor (Homo sapiens, UniProt P30542); assay: Adenosine A1 Receptor Functional Assay (A1GAL2); assay type: cell-based; conditions: CHO-K1 cells, cAMP inducible beta-galactosidase reporter, 4 nM r-PIA/1 uM Forskolin agonist challenge
T2 construct: expressed in transfected cells; host or cells: CHO-K1
T2 sequence (P30542 1-326): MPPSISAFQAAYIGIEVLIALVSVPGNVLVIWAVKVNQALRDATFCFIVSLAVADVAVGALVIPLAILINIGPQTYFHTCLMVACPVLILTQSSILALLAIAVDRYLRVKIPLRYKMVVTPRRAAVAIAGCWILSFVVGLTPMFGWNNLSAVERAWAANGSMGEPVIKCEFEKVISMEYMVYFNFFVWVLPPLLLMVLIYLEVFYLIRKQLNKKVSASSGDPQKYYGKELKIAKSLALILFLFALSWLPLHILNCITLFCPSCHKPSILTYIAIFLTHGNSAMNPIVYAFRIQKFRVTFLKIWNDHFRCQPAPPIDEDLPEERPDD
Protocol: Adenosine A1 Receptor Functional Assay (A1GAL2)
To initiate the functional assay, cryopreserved CHO-K1 cells overexpressing the human adenosine A1 receptor and containing a cAMP inducible beta-galactosidase reporter gene were thawed, centrifuged, DMSO containing media removed, and then seeded with fresh culture media into clear 384-well tissue culture treated plates (BD #353961) at a concentration of 10K cells/well. Prior to assay, these plates were cultured for two days at 37° C., 5% CO2, 90% Rh. On the day of the functional assay, culture media was removed and replaced with 45 uL assay medium (Hams/F-12 Modified (Mediatech #10-080CV) supplemented w/0.1% BSA). Test compounds were diluted and 11 point curves created at a 1000× concentration in 100% DMSO. Immediately after addition of assay media to the cell plates, 50 nL of the appropriate test compound antagonist or agonist control curves were added to cell plates using a Cartesian Hummingbird. Compound curves were allowed to incubate at room temperature on cell plates for approximately 15 minutes before addition of a 4 nM r-PIA (Sigma P4532)/1 uM Forskolin (Sigma F3917) agonist challenge (5 uL volume). A control curve of r-PIA in 1 uM Forskolin, a DMSO/Media control, and a single dose of Forskolin were also included on each plate. After additions, cell plates were allowed to incubate at 37° C., 5% CO2, 90% Rh for 5.5-6 hours. After incubation, media was removed, and cell plates were washed 1×50 uL with DPBS w/o Ca & Mg (Mediatech 21-031-CV). Into dry wells, 20 uL of 1× Reporter Lysis Buffer (Promega E3971 (diluted in dH2O from 5× stock)) was added to each well and plates frozen at −20° C. overnight. For β-galactosidase enzyme colorimetric assay, plates were thawed out at room temperature and 20 μL 2× assay buffer (Promega) was added to each well. Color was allowed to develop at 37° C., 5% CO2, 90% Rh for 1-1.5 h or until reasonable signal appeared. The colorimetric reaction was stopped with the addition of 60 μL/well 1M sodium carbonate. Plates were counted at 405 nm on a SpectraMax Microplate Reader (Molecular Devices). Data was analyzed in Microsoft Excel and IC/EC50 curves were fit using a standardized macro.

[3] = biological target: T3, human A2a adenosine receptor (Homo sapiens, UniProt P29274); assay: Ligand Binding Assay for Adenosine A2a Receptor (A2A-B); conditions: HEK293 cell plasma membrane, radioligand [3H]CGS21680
T3 construct: purchased PerkinElmer RB-HA2a; host or cells: HEK293 plasma membrane
Protocol: Ligand Binding Assay for Adenosine A2a Receptor (A2A-B)
Ligand binding assay of adenosine A2a receptor was performed using plasma membrane of HEK293 cells containing human A2a adenosine receptor (PerkinElmer, RB-HA2a) and radioligand [^3H]CGS21680 (PerkinElmer, NET1021). Assay was set up in 96-well polypropylene plate in total volume of 200 μL by sequentially adding 20 μL 1:20 diluted membrane, 130 μL assay buffer (50 mM Tris.HCl, pH7.4 10 mM MgCl2, 1 mM EDTA) containing [^3H] CGS21680, 50 μL diluted compound (4×) or vehicle control in assay buffer. Nonspecific binding was determined by […] NECA. Reaction was carried out at room temperature for 2 hours before filtering through 96-well GF/C filter plate pre-soaked in 50 mM Tris.HCl, pH7.4 containing 0.3% polyethylenimine. Plates were then washed 5 times with cold 50 mM Tris.HCl, pH7.4, dried and sealed at the bottom. Microscintillation fluid 30 μL was added to each well and the top sealed. Plates were counted on Packard Topcount for [^3H]. Data was analyzed in Microsoft Excel and GraphPad Prism programs. (Varani, K.; Gessi, S.; Dalpiaz, A.; Borea, P. A. British Journal of Pharmacology, 1996, 117, 1693)

T1 sequence (P29274 whole entry): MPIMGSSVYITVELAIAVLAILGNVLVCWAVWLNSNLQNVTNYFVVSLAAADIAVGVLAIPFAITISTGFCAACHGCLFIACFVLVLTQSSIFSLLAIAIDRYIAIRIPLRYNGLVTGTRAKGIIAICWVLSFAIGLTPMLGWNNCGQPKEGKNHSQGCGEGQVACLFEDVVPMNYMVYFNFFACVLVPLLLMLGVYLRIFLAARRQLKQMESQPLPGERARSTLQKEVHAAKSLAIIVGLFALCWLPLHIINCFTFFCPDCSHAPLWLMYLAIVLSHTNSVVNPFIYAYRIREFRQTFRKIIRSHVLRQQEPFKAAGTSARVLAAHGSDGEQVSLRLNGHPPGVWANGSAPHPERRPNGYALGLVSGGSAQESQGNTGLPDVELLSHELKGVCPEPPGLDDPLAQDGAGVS
T3 sequence (P29274 whole entry): as above

Row | Compound | Ki [1] [nM] | Ki [2] [nM] | Ki [3] [nM]
1 | Nc1nc(-c2ncco2)nc2sc(Cc3cccnc3)cc12 [Example 18, 2-Oxazol-2-yl-6-pyridin-3-ylmethyl-thieno[2,3-d]pyrimidin-4-ylamine] | 30 | 489 | –
2 | CC(O)(c1cc2c(N)nc(-c3ccc(C(F)F)o3)nc2s1)c1ncccc1F (stereo not shown) [Example 30, 1-[4-Amino-2-(5-difluoromethyl-furan-2-yl)-thieno[2,3-d]pyrimidin-6-yl]-1-(3-fluoro-pyridin-2-yl)-ethanol] | 11.4 | 403 | 16.3
3 | CC(O)(c1ccccn1)c1cc2c(N)nc(-c3ccc(C(F)F)o3)nc2s1 (stereo not shown) [Example 36, 1-[4-Amino-2-(5-difluoromethyl-furan-2-yl)-thieno[2,3-d]pyrimidin-6-yl]-1-pyridin-2-yl-ethanol] | 36 | 267 | –
4 | Nc1nc(-c2ccc(C(F)F)o2)nc2sc(C(=O)c3ncccc3F)cc12 [Example 25, [4-Amino-2-(5-difluoromethyl-furan-2-yl)-thieno[2,3-d]pyrimidin-6-yl]-(3-fluoro-pyridin-2-yl)-methanone] | 24.9 | 838 | –
5 | Nc1nc(-c2ccc(C3CC3)o2)nc2sc(Cc3cccnc3)cc12 [Example 19, 2-(5-Cyclopropyl-furan-2-yl)-6-pyridin-3-ylmethyl-thieno[2,3-d]pyrimidin-4-ylamine] | 409 | 579 | –
6 | Cc1csc(-c2nc(N)c3cc(Cc4ccccn4)sc3n2)n1 [Example 17, 2-(4-Methyl-thiazol-2-yl)-6-pyridin-2-ylmethyl-thieno[2,3-d]pyrimidin-4-ylamine] | 7.09 | 100 | –
7 | 6-(6-Chloro-pyridin-3-ylmethyl)-2-(5-methyl-furan-2-yl)-thieno[2,3-d]pyrimidin-4-ylamine [Example 1] | 126 | 1590 | –
8 | Nc1nc(-c2cnco2)nc2sc(Cc3ccccn3)cc12 [Example 15, 2-Oxazol-5-yl-6-pyridin-2-ylmethyl-thieno[2,3-d]pyrimidin-4-ylamine] | 9.66 | 172 | –
9 | Nc1nc(-c2ccc(C3CC3)o2)nc2sc(Cc3ccccn3)cc12 [Example 20, hydrochloride] | 130 | 337 | –

Now those with a lower Ki [1], led by results:

Row | Ki [1] [nM] | Ki [2] [nM] | Ki [3] [nM] | Compound
10 | 3.77 | 59.5 | – | Nc1nc(-c2ccc(C(F)F)o2)nc2sc(C(O)c3ncccc3F)cc12 (stereo not shown) [Example 23, [4-Amino-2-(5-difluoromethyl-furan-2-yl)-thieno[2,3-d]pyrimidin-6-yl]-(3-fluoro-pyridin-2-yl)-methanol]
11 | 2.28 | 32.6 | – | COc1cccnc1Cc1cc2c(N)nc(-c3ccc(C(F)F)o3)nc2s1 [Example 37, 2-(5-Difluoromethyl-furan-2-yl)-6-(3-methoxy-pyridin-2-ylmethyl)-thieno[2,3-d]pyrimidin-4-ylamine]
12 | 4.73 | 61.9 | – | Nc1nc(-c2ccc(C(F)F)o2)nc2sc(Cc3ccccn3)cc12 [Example 35, 2-(5-Difluoromethyl-furan-2-yl)-6-pyridin-2-ylmethyl-thieno[2,3-d]pyrimidin-4-ylamine]
13 | 1.18 | 29.9 | – | Cc1ccc(-c2nc(N)c3cc(Cc4ccccn4)sc3n2)o1 [Example 16, 2-(5-Methyl-furan-2-yl)-6-pyridin-2-ylmethyl-thieno[2,3-d]pyrimidin-4-ylamine]
14 | 6.21 | 92.6 | – | Nc1nc(-c2ccc(C(F)F)o2)nc2sc(Cc3ncccc3F)cc12 [Example 24, 2-(5-Difluoromethyl-furan-2-yl)-6-(3-fluoro-pyridin-2-ylmethyl)-thieno[2,3-d]pyrimidin-4-ylamine]
15 | 1.62 | 23.5 | – | Nc1nc(-c2ccc(C(F)F)o2)nc2sc(C(O)c3ncccc3Br)cc12 (stereo not shown) [Example 32, [4-Amino-2-(5-difluoromethyl-furan-2-yl)-thieno[2,3-d]pyrimidin-6-yl]-(3-bromo-pyridin-2-yl)-methanol]
16 | 6.68 | 353 | – | Nc1nc(-c2ncco2)nc2sc(Cc3ccccn3)cc12 [Example 3, 2-Oxazol-2-yl-6-pyridin-2-ylmethyl-thieno[2,3-d]pyrimidin-4-ylamine hydrochloride]
17 | 4.29 | 111 | – | Nc1nc(-c2ccc(C(F)F)o2)nc2sc(C(O)c3ncccc3O)cc12 (stereo not shown) [Example 34, 2-{[4-Amino-2-(5-difluoromethyl-furan-2-yl)-thieno[2,3-d]pyrimidin-6-yl]-hydroxy-methyl}-pyridin-3-ol]
18 | 4.82 | 46.9 | – | Nc1nc(-c2ccc(C(F)F)o2)nc2sc(C(O)c3ccccn3)cc12 (stereo not shown) [Example 31, [4-Amino-2-(5-difluoromethyl-furan-2-yl)-thieno[2,3-d]pyrimidin-6-yl]-pyridin-2-yl-methanol]
19 | 5.25 | 28.2 | – | N#Cc1cccc(-c2nc(N)c3cc(Cc4cccnc4)sc3n2)n1 [Example 21, 6-(4-Amino-6-pyridin-3-ylmethyl-thieno[2,3-d]pyrimidin-2-yl)-pyridine-2-carbonitrile]
20 | 2.39 | 24.9 | – | COc1cccnc1C(O)c1cc2c(N)nc(-c3ccc(C(F)F)o3)nc2s1 (stereo not shown) [Example 29, [4-Amino-2-(5-difluoromethyl-furan-2-yl)-thieno[2,3-d]pyrimidin-6-yl]-(3-methoxy-pyridin-2-yl)-methanol]
21 | 2.18 | 21.2 | – | Nc1nc(-c2ccc(C(F)F)o2)nc2sc(Cc3ncccc3Br)cc12 [Example 33, 6-(3-Bromo-pyridin-2-ylmethyl)-2-(5-difluoromethyl-furan-2-yl)-thieno[2,3-d]pyrimidin-4-ylamine]

— patent publication US20100093756A1, “HETEROARYL SUBSTITUTED THIENO[2,3-d]PYRIMIDINE AND THEIR USE AS ADENOSINE A2a RECEPTOR ANTAGONISTS” (priority 2008, published 2010)
